Measurements from paper PMC7248098, “Biochemical characterization and inhibition of the alternative oxidase enzyme from the fungal phytopathogen Moniliophthora perniciosa” (Communications Biology, 2020).
Several values for one entry are separate records, joined by “and”; a condition that tells them apart may be missing. Equal values may be shown once. Entries after “also recorded” stand apart in the source; their conditions may differ. Read-outs that look alike come from different tables or passages of the source.

Assays:
Type in all cases: biochemical
[1] = biological target: T1, membrane-bound rMpAOX (Moniliophthora perniciosa, UniProt A8QJP8); experiment: Membrane-bound rMpAOX activity with putative activators (O2 uptake, oxygraph; dose-response); settings: for Increase of membrane-bound rMpAOX oxygen uptake: 1 mM activator; for Fold-change in membrane-bound rMpAOX O2 uptake: 1 mM each; for Fold-change in membrane-bound rMpAOX O2 uptake / fold induction at 1000 µM: single independent measurements (Fig1a); for EC50: membrane-bound rMpAOX, 4-parameter sigmoid fit, read-out: EC50 of rMpAOX activation; for fold induction at 1000 µM: pH 7.5, 1 mM each, read-out: Fold-change in membrane-bound rMpAOX O2 uptake;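 on Fractional velocity, %: 100% is the maximal rate reached in the activator titration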
T1 sequence (A8QJP8 entry or part of it): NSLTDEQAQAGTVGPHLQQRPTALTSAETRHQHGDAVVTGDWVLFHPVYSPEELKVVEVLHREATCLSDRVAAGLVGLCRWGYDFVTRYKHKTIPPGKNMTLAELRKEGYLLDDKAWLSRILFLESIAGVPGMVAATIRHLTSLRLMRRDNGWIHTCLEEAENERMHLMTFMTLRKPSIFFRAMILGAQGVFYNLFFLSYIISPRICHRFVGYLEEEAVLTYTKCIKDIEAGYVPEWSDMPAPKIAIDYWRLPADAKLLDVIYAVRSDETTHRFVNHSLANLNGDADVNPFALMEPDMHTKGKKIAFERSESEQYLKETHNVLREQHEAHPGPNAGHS
Description: (§1) E. coli membrane preparation was performed as described with minor modifications. […] The cells were disrupted using two passes at […] through a pre-cooled Constant cell disruption system (Constant Systems Ltd). The lysate was centrifuged for 15 min at 16,000 rcf, and the pelleted unbroken cells and large cell debris were discarded. The supernatant was centrifuged for 90 min at 200,000 rcf to collect the fragmented membranes.
(§2) Respiration rates were recorded before and after the addition of putative AOX activators, such as 5′-ADP, 5′-AMP, 5′-GDP, 5′-GMP, glyoxylate, oxaloacetate, pyruvate or succinate (1 mM each unless stated otherwise). […] Data were acquired with the Multiskan FC Microplate Photometer (ThermoFisher). […] Absorbance readings were taken periodically and a blank reactions (substrate without enzyme) were included in every assay and were used to determine and subtract the autoxidation rate (background). Proteoliposomes were assayed as described for the E. coli membrane fraction except that no KCN was included and 0.5 µL of the prep (~50 ng rMpAOX) were added into the reaction. When tested, inhibitors were preincubated with the enzyme in reaction buffer for 2–5 min before starting the reaction by the addition of substrate. The path length (i.e., the height of the reaction medium inside the well) was calculated based on the reaction volume and the well cross-section area informed by the supplier. GraphPad Prism 7.0 (GraphPad Software Inc.) was used for function fitting.

[2] = biological target: T1, membrane-bound rMpAOX; experiment: Dose-response assay of inhibitors with membrane-bound, GMP-activated rMpAOX (NADH oxidation); settings: for IC50: membrane-bound, GMP-activated rMpAOX, read-out: IC50
Description: as §1, §2

[3] = biological target: purified rMpAOX (Moniliophthora perniciosa, UniProt A8QJP8); experiment: Purified (detergent-solubilised) rMpAOX, Q1H2 oxidation; settings: for Activity: [Q1H2]
purified rMpAOX, sequence (A8QJP8 entry or part of it): as above
Description: The E. coli membrane fraction was resuspended with 50 mM Tris-HCl pH 7.5, 20% glycerol, 200 mM MgSO4 and 1% Fos-Choline-12 (FC-12) instead of MOPS buffer. The sample was left under gentle rocking for 1 h at 4 °C, after which it was centrifuged at 200,000 rcf for 30 min. […] T. Elthon, Nebraska, USA. Protein content was estimated through the Bradford method[63] and bovine serum albumin as standard.
as §2

[4] = log[I], M -4.60206 (Fig2b), 25 µM
[5] = log[I], M -5.60206 (Fig2b), 2.5 µM
[6] = log[I], M -6.60206 (Fig2b), 0.25 µM
[7] = log[I], M -7.60206 (Fig2b), 0.025 µM
[8] = log[I], M -7.60206 (Fig2b), read-out: Fractional velocity, %
[9] = log[I], M -8.60206 (Fig2b), 0.0025 µM
[10] = log[I], M -9.60206 (Fig2b), 0.00025 µM
[11] = log[I], M -9.60206 (Fig2b), read-out: Fractional velocity, %
[12] = log[I], M -10.6021 (Fig2b), 25 pM
[13] = log[I], M -10.6021 (Fig2b), read-out: Fractional velocity, %
[14] = log[I], M -6.60206 (Fig2b), read-out: Fractional velocity, %
[15] = log[I], M -8.60206 (Fig2b), read-out: Fractional velocity, %
[16] = substrate ubiquinol-1, 0.0125% C12E8, 100 ng rMpAOX

Nc1ncnc2c1ncn2[C@@H]1O[C@H](COP(=O)(O)OP(=O)(O)O)[C@@H](O)[C@H]1O [ADP, 5′-ADP]
Increase of membrane-bound rMpAOX oxygen uptake [1]: 4.5 times
Fold-change in membrane-bound rMpAOX O2 uptake [1]: 5 and 3.654 and 4.737
Fractional velocity, % ([1]; [activator] 0.025 mM (Fig1b)): 29.9% and 27.8%
Fractional velocity, % ([1]; [activator] 0.075 mM (Fig1b)): 31.9% and 29.4%
Fractional velocity, % ([1]; [activator] 0.175 mM (Fig1b)): 33.7% and 32.1%
Fractional velocity, % ([1]; [activator] 0.375 mM (Fig1b)): 36.2% and 33.2%
Fractional velocity, % ([1]; [activator] 0.625 mM (Fig1b)): 46.5% and 35.2%
Fractional velocity, % ([1]; [activator] 1.625 mM (Fig1b)): 64.4% and 58.2%
Fractional velocity, % ([1]; [activator] 3.625 mM (Fig1b)): 97.7% and 79.7%
Fractional velocity, % ([1]; [activator] 6.125 mM (Fig1b)): 128.8% and 99.5%
EC50 [1]: ~6500 µM

C/C(=C\Cc1c(O)c(Cl)c(C)c(C=O)c1O)CC/C=C(\C)[C@@H]1CC(=O)C(C)(C)O1 [AF, ascofuranone]
Fractional velocity, % [2, 4]: 3.958% and 2.609% and 7.671%
Fractional velocity, % [2, 5]: 3.068% and 1.958% and 7.541%
Fractional velocity, % [2, 6]: 2.9011% and 3.314% and 8.873%
Fractional velocity, % [2, 7]: 31.9402% and 19.7329%
activity at 0.025 µM [2, 8]: 20.3%
Fractional velocity, % [2, 9]: 81.2456% and 95.1772% and 65.5719%
Fractional velocity, % [2, 10]: 94.8574% and 87.6342%
activity at 0.00025 µM [2, 11]: 88%
Fractional velocity, % [2, 12]: 94.1707% and 88.3377%
activity at 25 pM [2, 13]: 93.1%
IC50 [2]: 0.0088 µM

Nc1ncnc2c1ncn2[C@@H]1O[C@H](COP(=O)(O)O)[C@@H](O)[C@H]1O [AMP, 5′-AMP]
Increase of membrane-bound rMpAOX oxygen uptake [1]: 8.1 times
Fold-change in membrane-bound rMpAOX O2 uptake [1]: 7.569 and 7.49 and 9.2495
Fractional velocity, % ([1]; [activator] 0.025 mM (Fig1b)): 22.2% and 18.4%
Fractional velocity, % ([1]; [activator] 0.075 mM (Fig1b)): 33.8% and 27.9%
Fractional velocity, % ([1]; [activator] 0.175 mM (Fig1b)): 53.8% and 45.3%
Fractional velocity, % ([1]; [activator] 0.375 mM (Fig1b)): 81.6% and 66.1%
Fractional velocity, % ([1]; [activator] 0.625 mM (Fig1b)): 102% and 87.9%
Fractional velocity, % ([1]; [activator] 1.125 mM (Fig1b)): 134.8% and 120.3%
Fractional velocity, % ([1]; [activator] 2.125 mM (Fig1b)): 172.4% and 157.6%
Fractional velocity, % ([1]; [activator] 4.125 mM (Fig1b)): 201.8% and 188.2%
Fractional velocity, % ([1]; [activator] 6.625 mM (Fig1b)): 199.8%
EC50 [1]: 918 µM and 910 µM

CC(C)=CCc1c(O)c(Cl)c(C)c(C=O)c1O [CD, colletochlorin D]
Fractional velocity, % [2, 5]: 6.725% and 4.7683% and 12.1201%
Fractional velocity, % [2, 6]: 26.8171% and 38.1389%
activity at 0.25 µM [2, 14]: 28%
Fractional velocity, % [2, 7]: 83.3186% and 82.5195%
activity at 0.025 µM [2, 8]: 81.9%
Fractional velocity, % [2, 9]: 98.2807% and 91.2399%
activity at 0.0025 µM [2, 15]: 95.8%
Fractional velocity, % [2, 10]: 94.0253% and 92.2465%
activity at 0.00025 µM [2, 11]: 98%
Fractional velocity, % [2, 12]: 93.9344% and 89.9529%
activity at 25 pM [2, 13]: 94.5%
IC50 [2]: 0.115 µM

Nc1nc2c(ncn2[C@@H]2O[C@H](COP(=O)(O)OP(=O)(O)O)[C@@H](O)[C@H]2O)c(=O)[nH]1 [GDP, 5′-GDP]
Increase of membrane-bound rMpAOX oxygen uptake [1]: did not have any noticeable effect; also recorded: no effect
Fold-change in membrane-bound rMpAOX O2 uptake [1]: 1.198 and 1.036 and 1.118
Increase of rMpAOX basal rate ([1]; 6.5 mM): 1.5 times

O=CC(=O)O [GLYOX, glyoxylate]
Fold-change in membrane-bound rMpAOX O2 uptake [1]: 0.6271 and 0.9309 and 0.7633

CCCCCCCCOC(=O)c1cc(O)c(O)c(O)c1 [OG, octyl gallate]
Fractional velocity, % [2, 4]: 3.004% and 2.353% and 7.7435%
Fractional velocity, % [2, 5]: 37.6641% and 53.0018% and 32.2387%
Fractional velocity, % [2, 6]: 91.8565% and 76.0465%
activity at 0.25 µM [2, 14]: 92.7%
Fractional velocity, % [2, 7]: 96.9123% and 87.3681%
activity at 0.025 µM [2, 8]: 99%
Fractional velocity, % [2, 9]: 100.043% and 88.594%
activity at 0.0025 µM [2, 15]: 98.8%
Fractional velocity, % [2, 10]: 96.5387% and 94.2199%
activity at 0.00025 µM [2, 11]: 98%
Fractional velocity, % [2, 12]: 93.2034% and 90.1921%
activity at 25 pM [2, 13]: 93.9%
IC50 [2]: 1.67 µM

O=C(O)CC(=O)C(=O)O [OXAL, oxaloacetate]
Fold-change in membrane-bound rMpAOX O2 uptake ([1]; 1000 µM): 0.932 and 1.186
fold induction at 1000 µM [1]: 0.847

CC(=O)C(=O)O [PYR, pyruvate]
Fold-change in membrane-bound rMpAOX O2 uptake ([1]; 1000 µM): 0.7655 and 0.9453
fold induction at 1000 µM [1]: 0.681

COc1c(O)c(C)c(CC=C(C)C)c(O)c1OC [Q1H2, ubiquinol-1]
Oxidation rate ([3]; 180 µM Q1H2): 0.36 µmol/min/mg
Activity ([3]; M 4.29 (Fig3c, mean)): 25.2546 nmol/min/mg
Activity ([3]; M 6.87 (Fig3c, mean)): 30.5181 nmol/min/mg
Activity ([3]; M 10.99 (Fig3c, mean)): 60.7997 nmol/min/mg
Activity ([3]; M 17.58 (Fig3c, mean)): 87.5414 nmol/min/mg
Activity ([3]; M 28.12 (Fig3c, mean)): 145.463 nmol/min/mg
Activity ([3]; M 45 (Fig3c, mean)): 202.371 nmol/min/mg
Activity ([3]; M 71.99 (Fig3c, mean)): 274.627 nmol/min/mg
Activity ([3]; M 115.19 (Fig3c, mean)): 327.356 nmol/min/mg
Activity ([3]; M 184.3 (Fig3c, mean)): 355.622 nmol/min/mg
Km [3, 16]: 68.5 µM
VMax [3, 16]: 504.1 nmol Q1 min^−1 mg^−1 and 504.1 ± 28.7 nmol Q1 min^−1 mg^−1

O=C(NO)c1ccccc1O [SHAM, salicylhydroxamic acid]
Fractional velocity, % [2, 4]: 95.8272% and 90.1105%
Fractional velocity, % [2, 5]: 96.6342% and 84.7725%
Fractional velocity, % [2, 6]: 99.0344% and 87.1837%
Fractional velocity, % [2, 7]: 97.5117% and 94.5942%
Fractional velocity, % [2, 9]: 99.3055% and 95.1323%
Fractional velocity, % [2, 10]: 99.8162% and 99.1897%
Fractional velocity, % [2, 12]: 99.1867% and 91.0587%
activity at 25 µM ([2]; read-out: Fractional velocity, %, log[I], M -4.60206 (Fig2b)): 96.4%
activity at 2.5 µM ([2]; read-out: Fractional velocity, %, log[I], M -5.60206 (Fig2b)): 98%
activity at 0.25 µM ([2]; read-out: Fractional velocity, %, log[I], M -6.60206 (Fig2b)): 96.1%
activity at 0.025 µM ([2]; read-out: Fractional velocity, %, log[I], M -7.60206 (Fig2b)): 95.6%
activity at 0.0025 µM ([2]; read-out: Fractional velocity, %, log[I], M -8.60206 (Fig2b)): 94.9%
activity at 0.00025 µM ([2]; read-out: Fractional velocity, %, log[I], M -9.60206 (Fig2b)): 93.7%
activity at 25 pM ([2]; read-out: Fractional velocity, %, log[I], M -10.6021 (Fig2b)): 88.7%
Effect on membrane-bound rMpAOX ([2]; up to the maximal tested concentration of 25 µM): did not exert any effect

O=C(O)CCC(=O)O [SUCC, succinate]
Fold-change in membrane-bound rMpAOX O2 uptake [1]: 1.198 and 0.7995 and 1.017
